Data published in patent US6479531B1, “Gastrin and cholecystokinin receptor ligands” (James Black Foundation Limited, priority 1998, dated 2002).

What was measured:
CCKB receptor = target: T1, CCKB receptor (Mus musculus, UniProt P56481); experiment: CCKB receptor radioligand binding assay in mouse cortical membranes; details: [125I]-CCK8(S) 200 pM, 150 min at 21±3°, read-out: CCKB pKi (converted)
T1 construct: The whole brains from male mice (CD1 22-25 g; Charles River) were removed; from tissue; host or cells: cerebral cortex membranes of male CD1 mice
T1 sequence (P56481 1-453): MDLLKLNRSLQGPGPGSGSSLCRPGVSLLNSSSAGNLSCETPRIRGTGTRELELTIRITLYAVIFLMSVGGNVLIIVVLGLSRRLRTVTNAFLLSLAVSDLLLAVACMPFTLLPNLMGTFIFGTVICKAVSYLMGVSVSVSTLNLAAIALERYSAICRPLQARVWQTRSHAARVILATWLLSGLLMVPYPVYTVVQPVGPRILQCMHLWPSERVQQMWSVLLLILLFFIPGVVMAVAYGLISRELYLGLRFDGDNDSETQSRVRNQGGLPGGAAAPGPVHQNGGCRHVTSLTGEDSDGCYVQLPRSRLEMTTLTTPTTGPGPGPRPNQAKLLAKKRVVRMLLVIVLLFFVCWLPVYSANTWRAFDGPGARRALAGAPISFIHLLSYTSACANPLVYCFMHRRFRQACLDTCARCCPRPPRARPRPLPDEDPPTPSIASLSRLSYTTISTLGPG
How it was run: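 Bound radioactivity was gamma-counted after rapid GF/B filtration and cold 50 mM Tris-HCl (pH 7.4) washes. The tissue was cerebral cortex from male CD1 mice, prepared as twice-centrifuged membranes in pH 7.2 HEPES/NaCl/KCl/MgCl2/EDTA buffer with bacitracin at 20 mg/ml original wet weight.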

gastrin receptor = target: T2, gastrin receptor (Rattus norvegicus, UniProt P30553); experiment: gastrin antagonist activity in immature rat stomach assay (pentagastrin dose-response, acid secretion); details: isolated immature rat stomach, cumulative pentagastrin dose-response curves, read-out: Gastrin pKb (converted)
T2 construct: The stomach was excised and flushed with ca. 1 ml of unbuffered physiological saline solution; from tissue; host or cells: isolated whole stomach of immature rats (ca. 21 days old)
T2 sequence (P30553 1-452): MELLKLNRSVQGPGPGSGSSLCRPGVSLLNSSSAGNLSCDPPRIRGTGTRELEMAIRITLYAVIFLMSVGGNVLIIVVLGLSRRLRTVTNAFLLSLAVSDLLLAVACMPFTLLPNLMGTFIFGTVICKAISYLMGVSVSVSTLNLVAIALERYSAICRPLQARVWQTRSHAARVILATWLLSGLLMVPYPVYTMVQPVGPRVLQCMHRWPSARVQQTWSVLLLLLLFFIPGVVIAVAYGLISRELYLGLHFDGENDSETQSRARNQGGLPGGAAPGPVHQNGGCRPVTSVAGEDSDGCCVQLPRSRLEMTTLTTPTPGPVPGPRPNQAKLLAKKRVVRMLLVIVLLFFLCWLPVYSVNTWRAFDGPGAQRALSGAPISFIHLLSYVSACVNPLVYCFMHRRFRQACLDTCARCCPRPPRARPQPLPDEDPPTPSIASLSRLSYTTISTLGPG
How it was run: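 Isolated, lumen-perfused stomach from immature rats (33-50 g, ca. 21 days) in a 37° organ bath with 3×10^−8 M 5-methylfurmethide, gassed 95% O2/5% CO2. Compound added serosally after 120 min stabilisation; cumulative pentagastrin dose-response curves begun 60 min later, acid secretion followed by perfusate pH.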

| SMILES | Ki (CCKB receptor) [nM] | Kb (gastrin receptor) [nM] |
| --- | --- | --- |
| Cc1ccc(NC(=O)c2nc(-c3ccccc3C)[nH]c2CCC23CC4CC(CC(C4)C2)C3)cc1C(=O)O [Example 106, 5-{[5-(2-Adamantan-1-yl-ethyl)-2-o-tolyl-1H-imidazole-4-carbonyl]-amino}-2-methyl-benzoic Acid] | 5.89 | 6.31 |
| Cc1ccccc1-c1nc(C(=O)Nc2ccc(Cl)c(C(=O)O)c2)c(CCC23CC4CC(CC(C4)C2)C3)[nH]1 [Example 245, 5-{[5-(2-Adamantan-1-yl-ethyl)-2-o-tolyl-1H-imidazole-4-carbonyl]-amino}-2-chloro-benzoic Acid] | 6.46 | 240 |
| Cc1ccc(-c2nc(C(=O)Nc3cccc(C(=O)O)c3)c(CCC34CC5CC(CC(C5)C3)C4)[nH]2)c(C)c1 [Example 67, 3-{[5-(2-Adamantan-1-yl-ethyl)-2-(2,4-dimethyl-phenyl)-1H-imidazole-4-carbonyl]-amino}-benzoic Acid] | 83.2 | 10 |
| O=C(O)c1cccc(NC(=O)c2nc(-c3cccc(O)c3)[nH]c2CCC23CC4CC(CC(C4)C2)C3)c1 [Example 62, 3-{[5-(2-Adamantan-1-yl-ethyl)-2-(3-hydroxy-phenyl)-1H-imidazole-4-carbonyl]-amino}-benzoic Acid] | 389 | 1200 |
| CN(C)c1ccc(-c2nc(C(=O)Nc3cccc(C(=O)O)c3)c(CCC34CC5CC(CC(C5)C3)C4)[nH]2)cc1 [Example 72, 3-{[5-(2-Adamantan-1-yl-ethyl)-2-(4-dimethylamino-phenyl)-1H-imidazole-4-carbonyl]-amino}-benzoic Acid] | 295 | 1230 |
| O=C(O)c1cc(NC(=O)c2nc(C3CCCCC3)[nH]c2CCC23CC4CC(CC(C4)C2)C3)ccc1F [Example 254, 5-{[5-(2-Adamantan-1-yl-ethyl)-2-cyclohexyl-1H-imidazole-4-carbonyl]-amino}-2-fluoro-benzoic Acid] | 12.6 | 11.7 |
| Cc1ccccc1-c1nc(C(=O)Nc2ccc(Br)c(C(=O)O)c2)c(CCC23CC4CC(CC(C4)C2)C3)[nH]1 [Example 246, 5-{[5-(2-Adamantan-1-yl-ethyl)-2-o-tolyl-1H-imidazole-4-carbonyl]-amino}-2-bromo-benzoic Acid] | 3.63 | 832 |
| O=C(O)c1cccc(NC(=O)c2sc(C3CCCCC3)nc2CCC23CC4CC(CC(C4)C2)C3)c1 [Example 122, 3-{[4-(2-Adamantan-1-yl-ethyl)-2-cyclohexyl-thiazole-5-carbonyl]-amino}-benzoic Acid] | 1020 | 3020 |
| Cc1ccccc1-c1nc(CCC23CC4CC(CC(C4)C2)C3)c(C(=O)Nc2ccc(N(C)C)c(C(=O)O)c2)[nH]1 [Example 242, 5-{[5-(2-Adamantan-1-yl-ethyl)-2-o-tolyl-1H-imidazole-4-carbonyl]-amino}-2-dimethylamino-benzoic Acid] | 324 | 741 |
| O=C(O)c1cc(NC(=O)c2cc(-c3ccc4ccccc4c3)[nH]c2CC23CC4CC(CC(C4)C2)C3)cc(C(=O)O)c1 [Example 4, 5-[(2-Adamantan-1-ylmethyl-5-naphthalen-2-yl-1H-pyrrole-3-carbonyl)-amino]-isophthalic Acid] | 87.1 | 1620 |
| CC(C)(C)c1nc(C(=O)Nc2cccc(C(=O)O)c2)c(CCC23CC4CC(CC(C4)C2)C3)[nH]1 [Example 80, 3-{[5-(2-Adamantan-1-yl-ethyl)-2-tert-butyl-1H-imidazole-4-carbonyl]-amino}-benzoic Acid] | 67.6 | 11 |
| O=C(O)c1cccc(NC(=O)c2nc(C3CCCCC3)[nH]c2CCC2CCCCCC2)c1 [Example 166, 3-{[5-(2-Cycloheptyl-ethyl)-2-cyclohexyl-1H-imidazole-4-carbonyl]-amino}-benzoic Acid] | 135 | 12.9 |
| O=C(O)c1cccc(NC(=O)c2nc(C3CCCCC3)[nH]c2CCC2C3CC4CC(C3)CC2C4)c1 (centres unmarked) [Example 172, 3-{[5-(2-Adamantan-2-yl-ethyl)-2-cyclohexyl-1H-imidazole-4-carbonyl]-amino}-benzoic Acid] | 21.4 | 3.72 |
| CN1CCC[C@H]1c1nc(C(=O)Nc2cccc(C(=O)O)c2)c(CCC23CC4CC(CC(C4)C2)C3)[nH]1 [Example 137, (S)-3-{[5-(2-Adamantan-1-yl-ethyl)-2-(1-methyl-pyrrolidin-2-yl)-1H-imidazole-4-carbonyl]-amino}-benzoic Acid] | 324 | 5.13 |
| Cc1ccc(NC(=O)c2nc(C3CCCO3)[nH]c2CCC23CC4CC(CC(C4)C2)C3)cc1C(=O)O (centres unmarked) [Example 188, 5-{[5-(2-Adamantan-1-yl-ethyl)-2-(tetrahydro-furan-2-yl)-1H-imidazole-4-carbonyl]-amino}-2-methyl-benzoic Acid] | 25.7 | 7.76 |
| CCCC(CCC)c1nc(C(=O)Nc2ccc(C)c(C(=O)O)c2)c(CCC23CC4CC(CC(C4)C2)C3)[nH]1 [Example 126, 5-{[5-(2-Adamantan-1-yl-ethyl)-2-(1-propyl-butyl)-1H-imidazole-4-carbonyl]-amino}-2-methyl-benzoic Acid] | 21.9 | 15.8 |
| Cc1ccc(C(=O)O)cc1NC(=O)c1nc(C2CCCCC2)[nH]c1CCC12CC3CC(CC(C3)C1)C2 [Example 252, 3-{[5-(2-Adamantan-1-yl-ethyl)-2-cyclohexyl-1H-imidazole-4-carbonyl]-amino}-4-methylbenzoic Acid] | 170 | 263 |
| COc1cccc(-c2nc(C(=O)Nc3cccc(C(=O)O)c3)c(CCC3CCCCCC3)[nH]2)c1 [Example 42, 3-{[5-(2-Cycloheptyl-ethyl)-2-(3-methoxy-phenyl)-1H-imidazole-4-carbonyl]-amino}-benzoic Acid] | 1510 | 50.1 |
| Cc1ccc(NC(=O)c2nc(-c3ccccn3)[nH]c2CCC23CC4CC(CC(C4)C2)C3)cc1C(=O)O [Example 179, 5-{[5-(2-Adamantan-1-yl-ethyl)-2-pyridine-2-yl-1H-imidazole-4-carbonyl]-amino}-2methyl-benzoic Acid] | 40.7 | 46.8 |
| O=C(O)c1cccc(NC(=O)c2nc(-c3ccccc3C(F)(F)F)[nH]c2CCC23CC4CC(CC(C4)C2)C3)c1 [Example 56, 3-{[5-(2-Adamantan-1-yl-ethyl)-2-(2-trifluoromethyl-phenyl)-1H-imidazole-4-carbonyl]-amino}-benzoic Acid] | 240 | 18.2 |
| CCc1ccccc1-c1nc(C(=O)Nc2ccc(C)c(C(=O)O)c2)c(CCC23CC4CC(CC(C4)C2)C3)[nH]1 [Example 159, 5-{[5-(2-Adamantan-1-yl-ethyl)-2-(2-ethyl-phenyl)-1H-imidazole-4-carbonyl]-amino}-2-methyl-benzoic Acid] | 12.3 | 316 |
| Cc1ccc(NC(=O)c2nc(-c3ccccc3C)n(C)c2CCC23CC4CC(CC(C4)C2)C3)cc1C(=O)O [Example 161, 5-{[5-(2-Adamantan-1-yl-ethyl)-1-methyl-2-o-tolyl-1H-imidazole-4-carbonyl]-amino}-2-methyl-benzoic Acid] | 38.9 | 81.3 |
| O=C(O)c1cccc(NC(=O)c2[nH]c(C3CC3)nc2CCC23CC4CC(CC(C4)C2)C3)c1 [Example 197, 3-{[5-(2-Adamantan-1-yl-ethyl)-2-cyclopropyl-1H-imidazole-4-carbonyl]-amino}-benzoic Acid] | 776 | 70.8 |
| O=C(O)c1cccc(NC(=O)c2nc(-c3ccc(Cl)cc3Cl)[nH]c2CCC23CC4CC(CC(C4)C2)C3)c1 [Example 146, 3-{[5-(2-Adamantan-1-yl-ethyl)-2-(2,4-dichlorophenyl)-1H-imidazole-4-carbonyl]-amino}-benzoic Acid] | 151 | 51.3 |
| O=C(O)c1cccc(NC(=O)c2nc(C3CC4CCC3C4)[nH]c2CCC23CC4CC(CC(C4)C2)C3)c1 (racemic) [Example 115, (±)-exo-3-{[5-(2-Adamantan-1-yl-ethyl)-2-bicyclo[2.2.1]hept-2-yl-1H-imidazole-4-carbonyl]-amino}-benzoic Acid] | 25.7 | 6.31 |
